Several values for one entry are separate records, joined by “and”; a condition that tells them apart may be missing. Equal values may be shown once. Values belong to the compound of their own block, whether it stands above or below them.
Tested on: OVCAR-5 complex spheroids, viability
Assay: Anticancer human tumor OVCAR-5 cell line growth inhibition;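 note: spheroids exposed to agents for seven days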;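 for viability, T/C: 100% = DMSO vehicle control wells viability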
Conditions: for viability, T/C: stronger effect = lower value
Procedure, shortened: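 Drug combinations with the LSD1 inhibitor iadademstat tested on tumor cells co-cultured as spheroids with endothelial cells and mesenchymal stem cells. Concentrations descended in half-log increments from clinical Cmax or 10 microM.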

[1] = curve of first compound, second compound 0.1 µM
[2] = curve of first compound, second compound 0.316 µM
[3] = curve of first compound, second compound 1 µM
[4] = curve of first compound, second compound 3.16 µM
[5] = curve of first compound, second compound 10 µM

Structure (SMILES): Nc1ncn(C2CC(O)C(CO)O2)c(=O)n1 (configuration not stated) + NC1CCC(NC2CC2c2ccccc2)CC1
IC50 [1]: > 1000 nM | IC50 [2]: > 1000 nM | IC50 [3]: > 1000 nM | IC50 [4]: > 1000 nM | IC50 [5]: > 1000 nM | viability, T/C (second compound 0.1 µM, first compound 0.00316 µM): 103% | viability, T/C (second compound 0.1 µM, first compound 0.01 µM): 104% | viability, T/C (second compound 0.1 µM, first compound 0.0316 µM): 94.4% | viability, T/C (second compound 0.1 µM, first compound 0.1 µM): 89.5% | viability, T/C (second compound 0.1 µM, first compound 0.316 µM): 75.5% | viability, T/C (second compound 0.1 µM, first compound 1 µM): 79% | viability, T/C (second compound 0.316 µM, first compound 0.00316 µM): 97.7% | viability, T/C (second compound 0.316 µM, first compound 0.01 µM): 104% | viability, T/C (second compound 0.316 µM, first compound 0.0316 µM): 81.4% | viability, T/C (second compound 0.316 µM, first compound 0.1 µM): 79.6% | viability, T/C (second compound 0.316 µM, first compound 0.316 µM): 78.4% | viability, T/C (second compound 0.316 µM, first compound 1 µM): 78.4% | viability, T/C (second compound 1 µM, first compound 0.00316 µM): 91.8% | viability, T/C (second compound 1 µM, first compound 0.01 µM): 82.3% | viability, T/C (second compound 1 µM, first compound 0.0316 µM): 79.6% | viability, T/C (second compound 1 µM, first compound 0.1 µM): 81.3% | viability, T/C (second compound 1 µM, first compound 0.316 µM): 76% | viability, T/C (second compound 1 µM, first compound 1 µM): 73.7% | viability, T/C (second compound 3.16 µM, first compound 0.00316 µM): 91.6% | viability, T/C (second compound 3.16 µM, first compound 0.01 µM): 93.3% | viability, T/C (second compound 3.16 µM, first compound 0.0316 µM): 78.2% | viability, T/C (second compound 3.16 µM, first compound 0.1 µM): 76.8% | viability, T/C (second compound 3.16 µM, first compound 0.316 µM): 70.5% | viability, T/C (second compound 3.16 µM, first compound 1 µM): 66.6% | viability, T/C (second compound 10 µM, first compound 0.00316 µM): 83.7% | viability, T/C (second compound 10 µM, first compound 0.01 µM): 83.1% | viability, T/C (second compound 10 µM, first compound 0.0316 µM): 79.1% | viability, T/C (second compound 10 µM, first compound 0.1 µM): 67.1% | viability, T/C (second compound 10 µM, first compound 0.316 µM): 61.9% | viability, T/C (second compound 10 µM, first compound 1 µM): 66%

IC50 (curve of compound): 7590 nM and 8360 nM
Structure (SMILES): CC1(C)CCC(CN2CCN(c3ccc(C(=O)NS(=O)(=O)c4ccc(NCC5CCOCC5)c([N+](=O)[O-])c4)c(Oc4cnc5[nH]ccc5c4)c3)CC2)=C(c2ccc(Cl)cc2)C1
viability, T/C (compound 0.0316 µM): 98% and 105% | viability, T/C (compound 0.1 µM): 101% and 98.1% | viability, T/C (compound 0.316 µM): 95.8% and 105% | viability, T/C (compound 1 µM): 107% and 105% | viability, T/C (compound 3.16 µM): 107% and 103% | viability, T/C (compound 10 µM): 33.7% and 40.2%

Structure (SMILES): NS(=O)(=O)OCC1CC(n2ccc3c(NC4CCc5ccccc54)ncnc32)CC1O (configuration not stated) + NC1CC1c1ccc(-c2cccc(O)c2)cc1
IC50 [1]: 186 nM | IC50 [2]: 178 nM | IC50 [3]: 145 nM | IC50 [4]: 156 nM | IC50 [5]: 83.9 nM | viability, T/C (second compound 0.1 µM, first compound 0.00949 µM): 145% | viability, T/C (second compound 0.1 µM, first compound 0.03 µM): 133% | viability, T/C (second compound 0.1 µM, first compound 0.0949 µM): 84.2% | viability, T/C (second compound 0.1 µM, first compound 0.3 µM): 25.6% | viability, T/C (second compound 0.1 µM, first compound 0.949 µM): 8.27% | viability, T/C (second compound 0.1 µM, first compound 3 µM): 5.16% | viability, T/C (second compound 0.316 µM, first compound 0.00949 µM): 152% | viability, T/C (second compound 0.316 µM, first compound 0.03 µM): 149% | viability, T/C (second compound 0.316 µM, first compound 0.0949 µM): 79.6% | viability, T/C (second compound 0.316 µM, first compound 0.3 µM): 26.9% | viability, T/C (second compound 0.316 µM, first compound 0.949 µM): 22.2% | viability, T/C (second compound 0.316 µM, first compound 3 µM): 4.93% | viability, T/C (second compound 1 µM, first compound 0.00949 µM): 117% | viability, T/C (second compound 1 µM, first compound 0.03 µM): 145% | viability, T/C (second compound 1 µM, first compound 0.0949 µM): 72% | viability, T/C (second compound 1 µM, first compound 0.3 µM): 25% | viability, T/C (second compound 1 µM, first compound 0.949 µM): 7.9% | viability, T/C (second compound 1 µM, first compound 3 µM): 4.8% | viability, T/C (second compound 3.16 µM, first compound 0.00949 µM): 141% | viability, T/C (second compound 3.16 µM, first compound 0.03 µM): 126% | viability, T/C (second compound 3.16 µM, first compound 0.0949 µM): 69.7% | viability, T/C (second compound 3.16 µM, first compound 0.3 µM): 23.8% | viability, T/C (second compound 3.16 µM, first compound 0.949 µM): 7.78% | viability, T/C (second compound 3.16 µM, first compound 3 µM): 4.11% | viability, T/C (second compound 10 µM, first compound 0.00949 µM): 131% | viability, T/C (second compound 10 µM, first compound 0.03 µM): 101% | viability, T/C (second compound 10 µM, first compound 0.0949 µM): 42.7% | viability, T/C (second compound 10 µM, first compound 0.3 µM): 16.2% | viability, T/C (second compound 10 µM, first compound 0.949 µM): 6.76% | viability, T/C (second compound 10 µM, first compound 3 µM): 4.61%
